In publication PMC8147781, “Discovery of Pyrrolidine-2,3-diones as Novel Inhibitors of P. aeruginosa PBP3” (Antibiotics, 2021):
In brackets after ≈: the same amount, converted by molar mass. Where two headings read alike, the source gives them in different places.

Legend:
[1] = system: S. pneumoniae; assay: MIC broth microdilution, S. pneumoniae; format: cell-based; details: Streptococcus pneumoniae, read-out: MIC (µM) S. pneumoniae
Protocol: (§1) MIC determination was performed via standard broth microdilution according to the Clinical & Laboratory Standards institute guidelines. Overnight colonies grown on BD-Columbia agar with 5% Sheep Blood (Becton Dickinson, Franklin Lakes, NJ, USA), were diluted in Mueller Hinton Broth 2 cation adjusted (MH+) medium (Thermo Fisher Scientific) to a concentration of 5 × 10^5 CFU/mL. Serial dilutions (1:2) of test compounds were incubated at 37 °C with 5 × 10^4 bacteria in a final volume of 100 μL. Sterile and growth controls in the presence of 1% DMSO and PMBN if the case, and the positive controls, aztreonam (AZT) and tigecycline (TIG) were included in the experiments (Table S4). The MICs were determined visually after 18 h at 37 °C and confirmed by the addition of 10% PrestoBlue (ThermoFisher Scientific) reagent according to the manufacture’s protocol. The fluorescence signal of PrestoBlue reagent was measured at Ex/Em: 550/595 nm after 30 min incubation at 37 °C using at a ClarioStar microplate reader (BMG Labtech). PrestoBlue reduction occurs in the presence of living cells and consequently turns red in colour and is highly fluorescent.

[2] = biological target: T1, PBP3 of P. aeruginosa (PaPBP3) (Pseudomonas aeruginosa, UniProt G3XD46); assay: S2dfluo fluorescence transpeptidase assay; format: biochemical; details: 300 nM PaPBP3, 30 min preincubation, 37 °C; for IC50: read-out: IC50 Determination with PaPBP3, S2dfluo Assay
T1 construct: P. aeruginosa PBP3 (amino acids 40 to 563); His-tag; made in house; host or cells: E. coli BL21 (DE3) Rosetta, plasmid pET41_PBP-3
Protocol: The assays were carried out in the presence of 5% DMSO and 0.01% Triton X100 to avoid the formation of colloidal structures and adsorption of protein and/or compounds to surfaces. The Z’-factor determined for the assay was 0.73 ± 0.28, indicating the suitability and robustness of the assay for high throughput screening (HTS) (Figure 1B,C).
The activity of soluble ^PaPBP3 (300 nM) was measured in the presence of 0.8 mM S2d, 1 mM D-alanine and 0.5 mM mBBr for 25 min by monitoring the increase in the fluorescence intensity of mBBr at Ex/Em: 394/490 nm using an Infinite M1000 microplate reader (Tecan, Männedorf, Switzerland). To test the effect of inhibitors, 100 µM or 0.8 to 100 µM of compounds diluted in 96% DMSO were incubated for 30 min and 450 rpm with 300 nM soluble PBP3. The incubation period was set to improve the binding of non-covalent inhibitors and 0.01% Triton X100 (Sigma-Aldrich, Taufkirchen, Germany) was added to prevent aggregation of compounds. The enzyme reaction was started by adding a substrate mix of 0.8 mM S2d and […]. The enzyme, compound and substrate mix were mixed 1:1, pipetted with a Liquidator 96 (Melter Toledo, Gießen, Germany) and the fluorescence intensity was directly monitored with an Infinite M1000 microplate reader (Tecan) at Ex/Em: 394/490 nm. The assay was performed in black, flat-bottom 96-well microplates (Greiner Bio-One, Kremsmünster, Austria) at 37 °C in Sorensen Phosphate Buffer (57 mM Na2HPO4 and 10 mM KH2PO4, pH 7.5 + 0.01% Triton X-100). The velocity of the PBP3 reaction was calculated in the presence of each concentration of compound and the velocity values were used to estimate IC50 by sigmoidal nonlinear regression, using Prism v.9 software (San Diego, CA, USA) and the velocity of the reaction at each concentration.

[3] = system: NRK-52E, epithelial kidney cell line; assay: Cytotoxicity assay (PrestoBlue), NRK52E; details: CC50, 72 h
Protocol: (§2) We finally tested the cytotoxicity of the compounds against four eukaryotic cell lines (Table 2 and Table S5), NRK-52E, an epithelial kidney cell line of Rattus norvegicus; Hep G2, an human epithelial liver cell line; and two suspension cell lines: CCRF-CEM, a T lymphoblast; and H9, a cutaneous T lymphocyte cell line.
(§3) Cell lines stored at −120 °C were thawed to 37 °C and resuspended in 10 mL of medium pre-warmed to 37 °C. Cells were pelleted at 300× g for 10 min, and then resuspended in fresh medium, seeded in a T-75 culture flask, and placed in a CO2 incubator (37 °C with 5% CO2 tension). Once the cells reached approximately 70–80% confluency, they were then passaged regularly. The adherent cell lines NRK52E, HepG2 and Huh 7 were washed once with 10 mL DPBS and detached with Trypsin-EDTA for 5 to 7 min and resuspended in 15 mL of the appropriate medium. The suspension cell line CCRF-CEM were diluted and resuspended in fresh RPMI 1640 PAN medium. To calculate the cell density, the cell resuspensions were diluted 1:6 with DPBS. Equal volumes of cell suspension and Trypan Blue were mixed and gently loaded into a haemocytometer (INCYTO, 31056 Republic of Korea). In each experiment, cell concentrations were adjusted to reach a concentration of 2.5 × 10^3 cell/well for NRK52E, 5 × 10^3 cell/well for HepG2, 6.2 × 10^4 cell/well for CCRF-CEM and 3 × 10^3 for H9. The cells were incubated with decreasing concentration of compounds (1 µL in 96% DMSO) for 72 h at 37 °C with 5% CO2 tension. Cycloheximide, a cytotoxic compound that interferes with the translocation step in eukaryotic protein synthesis was used as a control for the experiments. The assay was carried out in flat-bottom, transparent 96-well plates. Cell viability was determined using the PrestoBlue reagent (Thermo Fisher Scientific, Waltham, MA, USA) according to the manufacture’s protocol. First, 10× PrestoBlue was added to each well to obtain a 1× solution, and incubated at 37 °C for 45 min. Then, fluorescence was measured at Ex/Em: 550/595 nm using a ClarioStar microplate reader (BMG Labtech). Cytotoxicity was determined as the percentage of the difference in absorbance of the untreated sample to the treated sample. CC50 was calculated using the values obtained in each concentration using the sigmoidal dose-response by Prism v.8. The media used in each cell line is detailed in Table S6.

[4] = system: Hep G2, epithelial liver cell line; assay: Cytotoxicity assay (PrestoBlue), HepG2; details: CC50, 72 h
Protocol: as §2, §3

[5] = system: K. pneumoniae clinical isolate; assay: MIC broth microdilution, K. pneumoniae; format: cell-based; details: Klebsiella pneumoniae; Table S3
Protocol: as §1

[6] = system: S. aureus 133; assay: MIC broth microdilution, S. aureus; format: cell-based; details: Staphylococcus aureus, 133; Table S3
Protocol: as §1

[7] = system: H9, cutaneous T lymphocyte cell line; assay: Cytotoxicity assay (PrestoBlue), H9; details: CC50, 72 h
Protocol: as §2, §3

[8] = system: T-lymphoblast CCRF-CEM cell line; assay: Cytotoxicity assay (PrestoBlue), CCRF-CEM; details: for cytotoxic potential at the tested cell lines: four cell lines: NRK-52E, Hep G2, CCRF-CEM, H9; for Cytotoxicity CCRF-CEM: CC50, 72 h
Protocol: as §2, §3

T1 sequence (G3XD46 40-563): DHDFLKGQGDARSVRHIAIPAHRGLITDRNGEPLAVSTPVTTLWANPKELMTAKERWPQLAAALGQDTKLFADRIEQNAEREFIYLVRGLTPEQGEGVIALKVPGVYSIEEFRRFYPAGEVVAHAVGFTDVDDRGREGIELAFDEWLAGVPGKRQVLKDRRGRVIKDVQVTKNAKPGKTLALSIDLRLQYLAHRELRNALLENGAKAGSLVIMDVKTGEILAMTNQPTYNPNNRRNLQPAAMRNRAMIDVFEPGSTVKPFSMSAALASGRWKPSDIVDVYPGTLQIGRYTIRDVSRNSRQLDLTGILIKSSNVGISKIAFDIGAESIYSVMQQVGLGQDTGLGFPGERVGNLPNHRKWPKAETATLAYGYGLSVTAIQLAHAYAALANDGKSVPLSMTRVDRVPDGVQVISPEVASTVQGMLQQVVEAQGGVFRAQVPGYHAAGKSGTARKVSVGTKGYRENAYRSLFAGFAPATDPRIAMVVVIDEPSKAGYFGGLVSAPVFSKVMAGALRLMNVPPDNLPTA

SMILES | MIC ([1]; Table S3) | IC50 [2] | Cytotoxicity effect (µM) Epithelial kidney NRK52E [3] | Cytotoxicity effect (µM) Epithelial liver HepG2 [4] | MIC [5] | MIC [6] | Cytotoxicity effect (µM) T-lymphocyte H9 [7] | cytotoxic potential at the tested cell lines [8] | IC50 Determination with PaPBP3, S2dfluo Assay [2] | Cytotoxicity CCRF-CEM [8] | MIC [1]
O=C(C1=C(O)C(=O)N(Cc2cc3cnccc3[nH]2)C1c1ccc(Cl)cc1)c1ccc(Br)cc1 (stereo not shown) [Compound 36] | > 100 µM | > 100 µM | 58 ± 3 µM | 1 ± 2 µM | > 100 µM | > 100 µM | 48 ± 2 µM | high cytotoxic potential |  |  | 
O=C(C1=C(O)C(=O)N(Cc2cscn2)C1c1ccc(Cl)cc1)c1ccc(Br)cc1 (stereo not shown) [Compound 42] | > 100 µM | > 100 µM | > 100 µM | > 100 µM | > 100 µM | > 100 µM | > 100 µM |  | abolished the inhibitory activity | >100 µM | 
CCNC1=C(C(=O)c2ccc(Br)cc2)C(c2ccc(Cl)cc2)N(Cc2cccc(F)c2)C1=O (stereo not shown) [Compound 43, 4-(4-bromobenzoyl)-5-(4-chlorophenyl)-3-(ethylamino)-1-[(3-fluorophenyl)methyl]-5H-pyrrol-2-one] | > 100 µM | > 100 µM | 73 ± 9.2 µM | > 100 µM |  | > 100 µM | > 100 µM |  |  | > 100 µM | 
O=C(C1=C(O)C(=O)N(Cc2cc3ccccc3[nH]2)C1c1ccc(Cl)cc1)c1ccc(Br)cc1 (stereo not shown) [Compound 34, 4-(4-bromobenzoyl)-5-(4-chlorophenyl)-3-hydroxy-1-(1H-indol-2-ylmethyl)-5H-pyrrol-2-one] |  | 14 ± 9 µM | > 100 µM | > 100 µM | > 100 µM | 6.25 µM (≈ 3.26 µg/mL) | > 100 µM |  |  | >100 µM | 12.5 µM (≈ 6.52 µg/mL)
CCNC1=C(C(=O)c2ccc(Br)cc2)C(c2ccc(Cl)cc2)N(Cc2c[nH]c3ccccc23)C1=O (stereo not shown) [Compound 45] | 25 µM (≈ 13.7 µg/mL) | > 100 µM | 23 ± 11 µM | 23 ± 8 µM | > 100 µM | 6.25 µM (≈ 3.43 µg/mL) | 32 ± 10 µM | high cytotoxic potential |  |  | 
O=C(C1=C(O)C(=O)N(CCc2c[nH]c3ccccc23)C1c1ccc(Cl)cc1)c1ccc(Br)cc1 (stereo not shown) [Compound 40] | 12.5 µM (≈ 6.7 µg/mL) | 8 ± 4 µM | > 100 µM | > 100 µM | > 100 µM | > 100 µM | > 100 µM |  |  | 93 ± 4 µM | 
O=C(C1=C(N2CCOCC2)C(=O)N(Cc2cccc(F)c2)C1c1ccc(Cl)cc1)c1ccc(Br)cc1 (stereo not shown) [Compound 44, 4-(4-bromobenzoyl)-5-(4-chlorophenyl)-1-[(3-fluorophenyl)methyl]-3-(morpholin-4-yl)-5H-pyrrol-2-one] | > 100 µM | > 100 µM | 52 ± 3 µM | > 100 µM | > 100 µM | > 100 µM | > 100 µM |  |  | > 100 µM | 
O=C1NC(c2ccc(Cl)cc2)C(C(=O)c2ccc(Br)cc2)=C1O (stereo not shown) [Compound 32, 4-(4-bromobenzoyl)-5-(4-chlorophenyl)-3-hydroxy-1,5-dihydropyrrol-2-one] | > 100 µM | > 100 µM | 98 ± 5 µM | > 100 µM | > 100 µM | > 100 µM | > 100 µM |  | loss of the inhibitory effect | 94 ± 6 µM | 
O=C(C1=C(O)C(=O)N(Cc2cccc(F)c2)C1c1ccc(Cl)cc1)c1ccc(Br)cc1 (stereo not shown) [Compound 1] | 25 µM (≈ 12.5 µg/mL) | 28 ± 9 µM | > 100 µM | > 100 µM | > 100 µM | > 100 µM | > 100 µM |  |  | >100 µM | 
O=C(C1=C(O)C(=O)N(Cc2ccco2)C1c1ccc(Cl)cc1)c1ccc(Br)cc1 (stereo not shown) [Compound 41, 4-(4-bromobenzoyl)-5-(4-chlorophenyl)-1-(furan-2-ylmethyl)-3-hydroxy-5H-pyrrol-2-one] | 50 µM (≈ 23.6 µg/mL) | > 100 µM | > 100 µM | > 100 µM | > 100 µM | > 100 µM | > 100 µM |  | abolished the inhibitory activity | >100 µM | 
O=C(C1=C(O)C(=O)N(CCc2cc3ccccc3[nH]2)C1c1ccc(Cl)cc1)c1ccc(Br)cc1 (stereo not shown) [Compound 37] | 50 µM (≈ 26.8 µg/mL) | 16 ± 8 µM | 9 ± 12 µM | 20 ± 4 µM | > 100 µM | 6.25 µM (≈ 3.35 µg/mL) | 19 ± 6 µM | high cytotoxic potential |  | 8 ± 6 µM | 
CCN1C(=O)C(O)=C(C(=O)c2ccc(Br)cc2)C1c1ccc(Cl)cc1 (stereo not shown) [Compound 33] | 50 µM (≈ 21 µg/mL) | > 100 µM | 84 ± 5 µM | > 100 µM | > 100 µM | > 100 µM | > 100 µM |  | loss of the inhibitory effect | 58 ± 6 µM | 
